Converted amounts (≈) assume the structure as drawn.
What was measured:
Rattus norvegicus [1] = assay: Reversal of mechanically-induced allodynia in Wistar rat at 30 umol/kg, iv after 2 hrs by Brennan test; format: functional
Rattus norvegicus [2] = assay: Effect on mechanically-induced allodynia in iv dosed Wistar rat after 2 hrs by Brennan test; format: functional
[3] = Solubility of the compound; format: physicochemical

Structure (SMILES) | Activity (Rattus norvegicus [1]) | ED50 (Rattus norvegicus [2]) | solubility [3]
COc1ccc(C)c(OC(CCN2CCC(n3c(=O)n(Cc4ncn[nH]4)c4ccccc43)CC2)C(C)C)c1 (centres undefined) | 100% | 12.1 µmol/kg | 
COc1ccc(C)c(OC(CCN2CCC(n3c(=O)n(Cc4c[nH]cn4)c4ccccc43)CC2)C(C)C)c1 (centres undefined) |  |  | 200 µg/mL (≈ 386 µM)
COc1ccc(C)c(OC(CCN2CCC(n3c(=O)n(Cc4ncn[nH]4)c4ccccc43)CC2)C(C)C)c1.Cl (single isomer, unassigned; (+)) |  |  | 4 µg/mL

— ChEMBL document CHEMBL1143970, “Structure-activity relationships and CoMFA of N-3 substituted phenoxypropyl piperidine benzimidazol-2-one analogues as NOP receptor agonists with analgesic properties” (Bioorg Med Chem, 2008)
